Measured values published in PubChem BioAssay (NCI).
Values joined by “and” are separate entries in the source; they are usually repeats but may differ in a detail not shown here. Equal entries are not always repeated.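 Exposure lasted 48 hours, with cells grown in 96-well plates and compounds tested at five concentrations. GI50 is the concentration that inhibits growth by half. TGI denotes the concentration required for complete inhibition of growth.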

Assays:
Test in all cases: NCI-60 cell line screen, 48 h
M14 melanoma = system: M14 melanoma
HT29 colon = system: HT29 colon
SF-295 CNS = system: SF-295 CNS
PC-3 prostate = system: PC-3 prostate
MALME-3M melanoma = system: MALME-3M melanoma
TK-10 renal = system: TK-10 renal
A549 NSCLC = system: A549 NSCLC
NCI-H460 lung = system: NCI-H460 lung
ACHN renal = system: ACHN renal
UO-31 renal = system: UO-31 renal

SMILES | GI50 (M14 melanoma) [µM] | TGI (M14 melanoma) | GI50 (HT29 colon) [µM] | TGI (HT29 colon) | GI50 (SF-295 CNS) [µM] | TGI (SF-295 CNS) | GI50 (PC-3 prostate) [µM] | TGI (PC-3 prostate) | GI50 (MALME-3M melanoma) [µM] | TGI (MALME-3M melanoma) | GI50 (TK-10 renal) [µM] | TGI (TK-10 renal) | GI50 (A549 NSCLC) [µM] | TGI (A549 NSCLC) | GI50 (NCI-H460 lung) [µM] | TGI (NCI-H460 lung) | GI50 (ACHN renal) [µM] | TGI (ACHN renal) | GI50 (UO-31 renal) [µM] | TGI (UO-31 renal)
c1cc(C2CCCCC2)ccc1-c1cnc2nonc2n1 | 0.499 | 2.16 µM | 0.603 | 3.27 µM | 1.64 | 4.32 µM | 0.789 | 2.56 µM | 1.18 | 2.66 µM | 1.28 | 2.79 µM | 2.74 | 12.2 µM | 1.38 | 3.64 µM | 1.14 | 2.39 µM | 1.18 | 2.44 µM
C=C(C)C1CCC2=CC(CC3(C)OC3C3=CC(C(=O)OC)=C(C1)O3)OC2=O (centres undefined) | – | > 100 µM | – | > 100 µM | – | > 100 µM | – | > 100 µM | – | > 100 µM | – | > 100 µM | – | > 100 µM | – | > 100 µM | – | > 100 µM | – | > 100 µM
CC(C)(C)C(=O)c1c(C(F)(F)F)n([O-])c2cc(Cl)c(Cl)cc2[n+]1=O | 0.998 | 2.57 µM | 0.192 | 0.546 µM | 0.505 | 0.973 µM | 1.58 | 3.03 µM | 1.34 | 2.73 µM | 0.842 | 2.26 µM | 0.952 | 2.39 µM | 0.279 | 0.767 µM | 0.389 | 0.782 µM | 0.403 | 0.805 µM
CSc1ccc(NC(=O)Nc2cc(C)ccn2)cc1 | – | > 100 µM | – | > 100 µM | – | > 100 µM | – | > 100 µM | – | > 100 µM | – | > 100 µM | – | > 100 µM | – | > 100 µM | – | > 100 µM | – | > 100 µM
O=C(N/N=C/c1cc(Cl)ccc1O)c1ccccc1Nc1ccnc(C(F)(F)F)c1 | 0.407 | 2.26 µM | 1.95 | 18.3 µM | 0.613 | 13.2 µM | 1.01 | 35.6 µM | 0.839 | 5.29 µM | 0.813 | > 48 µM | 1.26 | 23.3 µM | 0.323 | 10.5 µM | 0.3 | 11.2 µM | 0.346 | 7.73 µM
CN(C)C(=S)/N=c1\ssc(=S)n1Cc1ccco1 | – | > 100 µM | – | > 24.4 µM | – | > 23 µM | – | > 100 µM | – | > 100 µM | – | > 100 µM | – | > 100 µM | – | > 64.8 µM | – | > 100 µM | – | > 100 µM
C(=C\c1ccncc1)/c1ccncc1 | > 100 | > 100 µM | > 100 | > 100 µM | > 100 | > 100 µM | > 100 | > 100 µM | > 100 | > 100 µM | > 100 | > 100 µM | > 100 | > 100 µM | > 100 | > 100 µM | > 100 | > 100 µM | 50.5 | > 100 µM
Oc1ccc(Cl)cc1Sc1cc(Cl)ccc1O | 3.83 | 26 µM and 12.7 µM | 3.27 | 33 µM and 12.6 µM | 2.37 | 30.9 µM and 6.43 µM | 2.72 | 30.1 µM and 9.58 µM | 2.41 | 20.3 µM and 6.81 µM | 8.02 | 31.3 µM and 31.1 µM | 3.91 | 58.6 µM and 13.7 µM | 3.45 | 24.8 µM and 9.2 µM | 2.72 | 23.1 µM and 8.27 µM | 2.24 | 20.1 µM and 6.24 µM
CN(C)CCNC(=O)c1cccc2c1Oc1cccc([N+](=O)[O-])c1O2 | – | 30 µM | – | 33.5 µM | – | 36.7 µM | – | 29.8 µM | – | 28.1 µM | – | > 100 µM | – | 35.9 µM | – | 35.4 µM | – | 37.5 µM | – | 32.5 µM
C[C@@]1(C(=O)O)CCC[C@]2(C)C1CC[C@]13C[C@@](O)(CO)[C@](O)(CC[C@]12O)C3 (some centres undefined) | > 100 | > 100 µM | > 100 | > 100 µM | > 100 | > 100 µM | > 100 | > 100 µM | > 100 | > 100 µM | > 100 | > 100 µM | > 100 | > 100 µM | > 100 | > 100 µM | > 100 | > 100 µM | > 100 | > 100 µM
CCCCSc1nc(N)c2cn[nH]c2n1 | 13.3 | 29.5 µM | 25.5 | 62.6 µM | 20.8 | 38.8 µM | 17.9 | 41.8 µM | 24.6 | 42.9 µM | 7.99 | 29.4 µM | 27.6 | > 73.6 µM | 19.6 | 51.1 µM | 24.8 | > 76.1 µM | 26.2 | > 80.4 µM
COc1ccc(/C=C2\COc3ccc(O)c(O)c3C2=O)cc1OC | 1.43 | 3.31 µM | 2.12 | 5.2 µM | 2.7 | 7.18 µM | 1.53 | 6.82 µM | 1.33 | 3.2 µM | 2.66 | 27.6 µM | 2.6 | > 100 µM | 1.83 | 5.02 µM | 1.32 | 2.75 µM | 0.789 | 2.19 µM
Cc1c(Cl)cccc1NC(=O)c1sc2nc3c(cc2c1N)C(=O)CCC3 | 0.0655 | – | 0.0445 | > 33.4 µM | 0.0429 | > 100 µM | 0.0517 | > 52.2 µM | 0.0363 | > 100 µM | 37.6 | > 100 µM | 0.0619 | > 100 µM | 0.0407 | > 100 µM | 0.0825 | > 61.5 µM | 0.0682 | > 91.5 µM
C[C@@H](CS[As](C)C)C(=O)N1CCC[C@H]1C(=O)O | 0.105 | 0.829 µM | 0.715 | > 100 µM | 1.79 | 5.32 µM | 0.284 | 1.25 µM | 0.164 | 1.15 µM | 0.268 | 1.11 µM | 1.58 | > 100 µM | 1.4 | 13.7 µM | 0.113 | 1.2 µM | 0.0923 | 0.8 µM
